How the values were obtained:
[1] = Area under the curve for compound was evaluated in dog at a dose of 20 mg/kg.; type: ADME, organism-based, Canis lupus familiaris; parameters: dose 20 mg/kg; conditions: in vivo
[2] = target: T1, Squalene synthase (Homo sapiens, UniProt P37268); experiment: Inhibitory activity against squalene synthase (SQS) obtained from HepG2 cells; type: cell-based
T1 sequence (P37268 whole entry): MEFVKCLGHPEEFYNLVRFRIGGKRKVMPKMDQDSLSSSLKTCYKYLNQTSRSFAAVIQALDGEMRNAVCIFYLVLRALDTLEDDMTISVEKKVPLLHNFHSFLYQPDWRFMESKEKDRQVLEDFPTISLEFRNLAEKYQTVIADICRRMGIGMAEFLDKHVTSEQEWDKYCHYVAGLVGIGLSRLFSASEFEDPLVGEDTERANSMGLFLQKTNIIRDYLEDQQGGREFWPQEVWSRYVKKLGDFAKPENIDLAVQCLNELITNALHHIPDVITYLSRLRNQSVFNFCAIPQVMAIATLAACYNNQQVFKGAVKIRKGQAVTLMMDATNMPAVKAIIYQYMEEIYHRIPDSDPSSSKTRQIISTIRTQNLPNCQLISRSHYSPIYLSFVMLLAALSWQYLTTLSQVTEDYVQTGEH

[3] = Area under the curve for compound was evaluated in dog at a dose of 10 mg/kg.; type: ADME, organism-based, Canis lupus familiaris; parameters: dose 10 mg/kg; conditions: in vivo

Row | SMILES | AUC [1] | IC50 [2] | AUC [3]
1 | C[C@@H](CC(=O)O)CC(=O)N[C@@H](C)[C@H](/C=C/c1ccc2ccccc2c1)Cc1ccc(Cl)c(Cl)c1 | 54000 ng·h/mL | 2.5 nM | –
2 | C[C@@H](CC(=O)O)CC(=O)N[C@@H](C)[C@@H](Cc1ccc(Cl)c(Cl)c1)c1ccc(-c2ccccc2)c(F)c1 | – | 3.9 nM | 9900 ng·h/mL
3 | C[C@H](NC(=O)C[C@@H](CC(=O)O)C(=O)O)[C@@H](Cc1ccc(Cl)c(Cl)c1)c1ccc(-c2ccccc2)c(F)c1 | 900 ng·h/mL | – | –

From ChEMBL document CHEMBL1151575, “J-104,123, a novel and orally-active inhibitor of squalene synthase: Stereoselective synthesis and cholesterol lowering effects in dogs” (Bioorg Med Chem Lett, 1996)
